One test has as its system A-549. The experiment in a line: Inhibition of cells growth by colorimetric (SRB) assay, A-549. Conditions: for GI50 / CC50: Homo sapiens, A549, 48 h. The source says: (§1) The finality of these assays is to interrupt the growth of a “in vitro” tumor cell culture by means a continued exhibition of the cells to the sample to be testing.
(§2) This form of the assay employs 96 well cell culture microplates of 9 mm diameter (Faircloth, 1988; Mosmann, 1983). Most of the cell lines are obtained from American Type Culture Collection (ATCC) derived from different human cancer types.
(§3) Cells are maintained in RPMI 1640 10% FBS, supplemented with 0.1 g/l penicillin and 0.1 g/l streptomycin sulphate and then incubated at 37° C., 5% CO2 and 98% humidity. For the experiments, cells were harvested from subconfluent cultures using trypsin and resuspended in fresh medium before plating.
(§4) Cells are seeded in 96 well microtiter plates, at 5×10^3 cells per well in aliquots of 195 μl medium, and they are allowed to attach to the plate surface by growing in drug free medium for 18 hours. Afterward, samples are added in aliquots of 5 μl in a ranging from 10 to 10^−8 μg/ml, dissolved in DMSO/EtOH/PBS (0.5:0.5:99). After 48 hours exposure, the antitumor effect are measured by the SRB methodology: cells are fixed by adding 50 μl of cold 50% (wt/vol) trichloroacetic acid (TCA) and incubating for 60 minutes at 4° C. Plates are washed with deionized water and dried. One hundred μl of SRB solution (0.4% wt/vol in 1% acetic acid) is added to each microtiter well and incubated for 10 minutes at room temperature. Unbound SRB is removed by washing with 1% acetic acid. Plates are air dried and bound stain is solubilized with Tris buffer. Optical densities are read on a automated spectrophotometric plate reader at a single wavelength of 490 nm.
(§5) The values for mean +/−SD of data from triplicate wells are calculated. Some parameters for cellular responses can be calculated: GI=growth inhibition, TGI=total growth inhibition (cytostatic effect) and LC=cell killing (cytotoxic effect).

The test system of a further test is HT-29. The experiment in a line: Inhibition of cells growth by colorimetric (SRB) assay, HT-29. Conditions: for GI50 / CC50: Homo sapiens, HT-29, 48 h.
From the text: as §1, §2, §3, §4, §5

Where [1] appears, read: read-out: GI50 A-549, SRB assay, 48 hours exposure.
[2] abbreviates: read-out: LC50 A-549, SRB assay, 48 hours exposure.
Where [3] appears, read: read-out: GI50 HT-29, SRB assay, 48 hours exposure.
Where [4] appears, read: read-out: LC50 HT-29, SRB assay, 48 hours exposure.

Like-named read-outs stand apart in the source and are kept apart here.

On to `CSc1nccc(-c2c3cccnc3n3c(SC)nccc23)n1` [Compound 9], for which the results for the GI50 with A-549 (setting [1]) and in the test on HT-29 (setting [3]) were 5.9 µM and 9.16 µM, respectively. The figures for the CC50 in the test on A-549 (setting [2]) and in the test on HT-29 (setting [4]) were 29.5 µM and 25.7 µM, respectively. For the same compound, the “TGI A-549” value in the test with A-549 (SRB assay, 48 hours exposure) is given as 1.18E−05. Besides, the “TGI HT-29” value in the test on HT-29 (SRB assay, 48 hours exposure) stood at 2.57E−05.
Regarding `CSc1nccc(-c2c3cc4ccccc4nc3n3c(SC)nccc23)n1` [Compound 17a], the GI50 in the test on A-549 (setting [1]) and with HT-29 (setting [3]) was no less than 25.7 µM throughout. Further, the CC50 in the test with A-549 (setting [2]) and in the test with HT-29 (setting [4]) was 129 µM in each case. The “TGI A-549” value with A-549 (SRB assay, 48 hours exposure) is 7.71E−05. The “TGI HT-29” value with HT-29 (SRB assay, 48 hours exposure) was found to be 7.71E−05.
Turning to `COc1ccc2nc3c(cc2c1)c(-c1ccnc(SC)n1)c1ccnc(SC)n13` [Compound 17b], the GI50 in the test on A-549 (setting [1]) and in the test with HT-29 (setting [3]) was 7.16 µM throughout. Moreover, the CC50 with A-549 (setting [2]) and with HT-29 (setting [4]) was 19.1 µM each time. Moreover, the “TGI A-549” value in the test with A-549 (SRB assay, 48 hours exposure) was found to be 1.19E−05. Besides, the “TGI HT-29” value with HT-29 (SRB assay, 48 hours exposure) was 1.19E−05.
Consider `CSc1nccc(-c2c3ccc(C)nc3n3c(SC)nccc23)n1` [Compound 22], for which the GI50 in the test with A-549 (setting [1]) was determined as 0.85 µM; in the test with HT-29 (setting [3]) it was 2.83 µM. The CC50 in the test on A-549 (setting [2]) is 22.7 µM; in the test on HT-29 (setting [4]) it was 19.8 µM. Further, the “TGI A-549” value with A-549 (SRB assay, 48 hours exposure) was found to be 2.27E−06. In addition, the “TGI HT-29” value in the test on HT-29 (SRB assay, 48 hours exposure) was found to be 8.50E−06.
As to `CSc1nccc(-c2c3cccnc3n3c(N)nccc23)n1` [Compound 25], the GI50 worked out at 0.649 µM in the test on A-549 (setting [1]) and 0.974 µM in the test with HT-29 (setting [3]). The CC50 in the test with A-549 (setting [2]) and in the test on HT-29 (setting [4]) was no less than 162 µM throughout. In addition, in the test with A-549 (SRB assay, 48 hours exposure), the “TGI A-549” value is given as 3.25E−07. Moreover, the “TGI HT-29” value in the test on HT-29 (SRB assay, 48 hours exposure) is listed as 9.74E−07.
As to `c1ccc(CNc2nccc(-c3c4cccnc4n4c(NCc5ccccc5)nccc34)n2)cc1` [Compound 28], the GI50 in the test on A-549 (setting [1]) and in the test with HT-29 (setting [3]) was 109 µM each time. The CC50 in the test on A-549 (setting [2]) and in the test on HT-29 (setting [4]) was 109 µM each time. Also, the “TGI A-549” value with A-549 (SRB assay, 48 hours exposure) is on record as 1.09E−04. Also, in the test on HT-29 (SRB assay, 48 hours exposure), the “TGI HT-29” value is recorded as 1.09E−04.
Turning to `CSc1nccc(-c2c3c(OCc4ccccc4)ccnc3n3c(SC)nccc23)n1` [Compound 52], the values for the GI50 in the test with A-549 (setting [1]) and with HT-29 (setting [3]) were 5.81 µM and 5.36 µM, respectively. In addition, the CC50 in the test with A-549 (setting [2]) and in the test on HT-29 (setting [4]) was 15.7 µM in each case. The “TGI A-549” value in the test with A-549 (SRB assay, 48 hours exposure) came to 9.56E−06. For the same compound, the “TGI HT-29” value in the test with HT-29 (SRB assay, 48 hours exposure) stood at 9.20E−06.
Turning to `COc1ccc(CNc2nccc(-c3c4c(OCc5ccccc5)ccnc4n4c(NCc5ccc(OC)cc5)nccc34)n2)cc1` [Compound 53], the GI50 in the test with A-549 (setting [1]) and in the test on HT-29 (setting [3]) was 16 µM throughout. Besides, the CC50 in the test on A-549 (setting [2]) and in the test with HT-29 (setting [4]) was 16 µM in each case. In the test on A-549 (SRB assay, 48 hours exposure), the “TGI A-549” value is reported as 1.60E−05. Also, the “TGI HT-29” value in the test with HT-29 (SRB assay, 48 hours exposure) was determined as 1.60E−05.
As to `COC(=O)C(C(=O)OC)c1nccc(-c2c3cccnc3n3c(N)nccc23)n1` [Compound 74], the GI50 with A-549 (setting [1]) turned out to be 5.35 µM; in the test on HT-29 (setting [3]) it was 1.22 µM. The CC50 was 21.3 µM with A-549 (setting [2]) and 25.5 µM in the test with HT-29 (setting [4]). For the same compound, the “TGI A-549” value with A-549 (SRB assay, 48 hours exposure) turned out to be 1.07E−05. Further, the “TGI HT-29” value with HT-29 (SRB assay, 48 hours exposure) is reported as 2.55E−05.
With `COc1ccc(COc2nccc(-c3c4cccnc4n4c(N)nccc34)n2)cc1` [Compound 79], the GI50 with A-549 (read-out: A-549 GI50, SRB assay, 48 hours exposure) was 25.1 µM; in the test with HT-29 (read-out: HT-29 GI50, SRB assay, 48 hours exposure), 25.1 µM. Further, the CC50 in the test on A-549 (read-out: A-549 LC50, SRB assay, 48 hours exposure) was determined as 25.1 µM; in the test on HT-29 (read-out: HT-29 LC50, SRB assay, 48 hours exposure), 25.1 µM. Moreover, the “A-549 TGI” value in the test with A-549 (SRB assay, 48 hours exposure) was 2.51E−05. Besides, in the test with HT-29 (SRB assay, 48 hours exposure), the “HT-29 TGI” value was 2.51E−05.
As for `Nc1nccc(-c2c3c(OCc4ccccc4)ccnc3n3c(N)nccc23)n1` [Compound 96], the values for the GI50 in the test with A-549 (setting [1]) and with HT-29 (setting [3]) were 12.3 µM and 16.2 µM, respectively. Moreover, the CC50 in the test with A-549 (setting [2]) and with HT-29 (setting [4]) was 26.1 µM in each case. In addition, the “TGI A-549” value in the test on A-549 (SRB assay, 48 hours exposure) turned out to be 2.61E−05. The “TGI HT-29” value with HT-29 (SRB assay, 48 hours exposure) was found to be 2.61E−05.
As to `CCOc1nccc(-c2c3c(OCc4ccccc4)ccnc3n3c(N)nccc23)n1` [Compound 103], the GI50 in the test with A-549 (setting [1]) was found to be 11.5 µM; with HT-29 (setting [3]) it was 11.9 µM. Moreover, the CC50 with A-549 (setting [2]) and in the test on HT-29 (setting [4]) was 24.2 µM each time. Further, in the test on A-549 (SRB assay, 48 hours exposure), the “TGI A-549” value amounted to 2.42E−05. For the same compound, the “TGI HT-29” value in the test with HT-29 (SRB assay, 48 hours exposure) was found to be 2.42E−05.
As for `Nc1nccc2c(-c3ccnc(OCc4ccccc4)n3)c3c(OCc4ccccc4)ccnc3n12` [Compound 104], the GI50 in the test on A-549 (setting [1]) and with HT-29 (setting [3]) was 21.1 µM in each case. The CC50 in the test on A-549 (setting [2]) and in the test with HT-29 (setting [4]) was 21.1 µM throughout. Besides, the “TGI A-549” value with A-549 (SRB assay, 48 hours exposure) stood at 2.11E−05. The “TGI HT-29” value in the test with HT-29 (SRB assay, 48 hours exposure) was found to be 2.11E−05.

By GI50 is commonly meant the concentration at which growth is held to half of that of the control.
